Measurements: US20060252107A1, “Compositions and methods for diagnosing and treating retinal diseases” (Acucela, Inc., priority 2005, published 2006)

Assays:
ganglion cells = experiment: mature retinal cell culture system with A2E as cell stressor, ganglion cell survival; assay type: cell-based, Porcine; conditions: 20 μM A2E for 48 hours
Experimental: (§1) The retinal cell culture system may be exposed to A2E at any concentration between 1 pM and 200 μM (e.g., 1 pM, 10 pM, 100 pM, 250 pM, 500 pM, 750 pM, 1 nM, 10 nM, 50 nM, 100 nM, 250 nM, 500 nM, 750 nM, 1 μM, 2 μM, 5 μM, 7.5 μM, 10 μM, 15 μM, 20 μM, 25 μM, 40 μM, 50 μM, 75 μM, 100 μM, 120 μM, 200 μM); or 250 μM, 500 μM, or 750 μM), between 1 μM and 40 μM, or between 10 μM and 20 μM, for a period of time, for example, between 2 and 48 hours or between 12 and 36 hours. In another embodiment, the cell culture may be exposed to lower concentrations of A2E (for example, between 1 pM and 10 μM or between 1 nM and 1 μM) for longer times (such as about one week, about two weeks, or about one month (4 weeks)).
(§2) Porcine eyes are obtained from Kapowsin Meats, Inc. (Graham, Wash.). Eyes are enucleated, and muscle and tissue are cleaned away from the orbit. Eyes are cut in half along their equator and the neural retina is dissected from the […] part of the eye in buffered saline solution, according to standard methods known in the art. […]
(§3) The retinal neuronal cells are cultured for 1, 3, 6, and 8 weeks, and the cells are analyzed by immunohistochemistry at each time point. […]
(§4) Cultures are analyzed by counting rhodopsin-labeled photoreceptors and NFM-labeled ganglion cells using an Olympus 1X81 or CZX41 microscope (Olympus, Tokyo, Japan). […]

photoreceptor cells = experiment: mature retinal cell culture system with A2E as cell stressor, photoreceptor survival; assay type: cell-based, Porcine
Experimental: as §1, §2, §3, §4

CC(C=CC1=C(C)CCCC1(C)C)=CC=CC(C)=Cc1cc(C=CC=C(C)C=CC2=C(C)CCCC2(C)C)cc[n+]1CCO [A2E, N-retinylidene-N-retinyl-ethanolamine]
survival of ganglion cells (ganglion cells): not adversely affected | death of photoreceptor cells (photoreceptor cells; 20 μM A2E for 48 hours, compared to photoreceptor cells not exposed to A2E): more than 90% | effect of exposure of the retinal neuronal cell culture system to A2E (photoreceptor cells; concentration and time not stated): selective killing of certain cells, particularly photoreceptor cells
